# According to patent EP3338775B1, “USE OF BUTYLIDENEPHTHALIDE” (Everfront Biotech Inc., priority 2015, dated 2017):
# Values joined by “and” are separate entries in the source; they are usually repeats but may differ in a detail not shown here. Equal entries are not always repeated.
# Legend:
# Assay type in all cases: cell-based
# brain CSCs ^CD133+ = assay: Wound healing assay with brain CSCs CD133+; conditions: BP 0-75 µg/ml or BCNU 0-400 µM for 24 hours; Figure 13
# Excerpt: In this research, a wound healing assay was used to further investigate the effect of BP on inhibiting the metastasis of cancer stem cells.
# [1] = system: HNC-TIC-like oral stem cells (ALDH1^+CD44^+-1 cell line or ALDH1^+CD44^+-2 cell line); assay: Soft agar colony formation assay with HNC-TIC-like oral stem cells; conditions: BP 0, 25 and 50 µg/ml for 24 hours
# Method: In this research, a soft agar colony formation assay was used to investigate the effect of BP on inhibiting the tumor initiating activity of cancer stem cells. First, HNC-TIC-like oral stem cells (i.e., ALDH1^+CD44^+-1 cell line or ALDH1^+CD44^+-2 cell line) were treated with different concentrations (0, 25 and 50 µg/ml) of BP for 24 hours, and then, the treated cells of each group was separately seeded in the top agar [containing DMEM (Dulbecco's Modified Eagle's Medium medium), 10 % (v/v) Fetal Calf Serum (FCS) and 0.3 % (w/v) agar] (purchased from Sigma-Aldrich) at an initial cell number of 2×10^4. On the other hand, a six-well culture dish was coated with the bottom agar [containing DMEM, 10 % (v/v) FCS and 0.6 % (w/v) agar] (purchased from Sigma-Aldrich), 2 ml for each well. After the bottom agar was solidified, each group of the top agar (containing oral cancer stem cells) was respectively added onto the bottom agar in different wells of the dish, 2 ml for each well. […] Lastly, the bottom agar was stained with 0.005 % crystal violet, the number of colonies (with a diameter ≥100 µm) was counted over five fields per well with the use of a microscope, and those fields were photographed. The relative colony-forming ability of cells of each experimental group was calculated based on the result of the group treated with 0 µg/ml of BP.
# [2] = system: E-cadherin, TGFβ-1 and Slug; assay: Western blotting of EMT-related proteins in brain CSCs CD133+; conditions: BP 0, 12.5, 25, 50, 62.5 and 75 µg/ml for 24 hours, Figure 12
# Method: In has been known that at the start of the epithelial-mesenchymal transition (EMT) of cancer stem cells, the expression of E-cadherin would reduce and the aggregation force between cancer stem cells would decrease, so that the cancer stem cells would gain great invasion and migration capacity and depart from the primary tumor, and thus, could metastasize. Brain CSCs ^CD133+ was treated with different concentrations (0, 12.5, 25, 50, 62.5 and 75 µg/ml) of BP for 24 hours, and then, proteins were extracted from the cells to conduct Western blotting to determine the expressions of E-cadherin, TGFβ-1 (with an ability to induce EMT) and Slug (i.e., a member of Snail family transcriptional repressors with a property of promoting the metastasis of cancer cells) proteins in the BP-treated brain CSCs ^CD133+.
# [3] = system: malignant glioma DBTRG cells; assay: MTT cell viability assay on malignant glioma DBTRG cells; conditions: 24-hour group
# Method: Thereafter, a cell viability assay, MTT assay, was utilized to analyze the viabilities of brain CSCs ^CD133+ and malignant glioma DBTRG cells. […] The results are shown in Figure 1A and Figure 1B for 24-hour group and 48-hour group (i.e., the treatment for 24 hours and 48 hours) and in Table 1 for 24-hour group.
# [4] = system: pcDNA3.0-neo brain CSCs ^CD133+; assay: Wound healing assay with pcDNA3.0-neo brain CSCs CD133+; conditions: without Axl overexpression; BP 0, 25, 50, 62.5, 75 and 100 µg/ml for 24 hours; Figure 14C
# Method: (§1) In this research, to further investigate whether the capability of BP in inhibiting the metastasis of cancer stem cells is related to Axl, brain CSCs ^CD133+ was transfected with pcDNA3.0-Axl plasmid and pcDNA3.0-neo plasmid respectively by using Lipofectmine 2000 transfection reagent. Then, the transfected brain CSCs ^CD133+ and un-transfected brain CSCs ^CD133+ were selected by 200 to 600 µg/ml G418 at the same time to obtain brain CSCs ^CD133+ having pcDNA3.0-Axl plasmid (hereinafter referred to as "pcDNA 3.0-Axl brain CSCs ^CD133+") or brain CSCs ^CD133+ having pcDNA3.0-neo plasmid (hereinafter referred to as "pcDNA3.0-neo brain CSCs ^CD133+"). Both pcDNA 3.0-Axl brain CSCs ^CD133+ and pcDNA3.0-neo brain CSCs ^CD133+ were observed and photographed with the use of a microscope. Then, proteins were extracted from both cells to conduct Western blotting to determine the expressions of Axl protein and β-actin in the BP-treated brain CSCs ^CD133+. Yet another, pcDNA 3.0-Axl brain CSCs ^CD133+ and pcDNA3.0-neo brain CSCs ^CD133+ were treated with different concentrations (0, 25, 50, 62.5, 75 and 100 µg/ml) of BP for 24 hours. At the same time, the phenomenon of pcDNA 3.0-Axl brain CSCs ^CD133+ and pcDNA3.0-neo brain CSCs ^CD133+ migrate to the wound was observed and photographed at 0 and 24 hours during the BP treatment.
# [5] = system: pcDNA 3.0-Axl brain CSCs ^CD133+; assay: Wound healing assay with pcDNA 3.0-Axl brain CSCs CD133+ (Axl overexpression); conditions: BP 0, 25, 50, 62.5, 75 and 100 µg/ml for 24 hours, compared to pcDNA3.0-neo cells, Figure 14C
# Method: as §1
# ALDH = assay: ALDEFLUOR flow cytometry analysis of ALDH activity in HNC-TIC-like oral stem cells; conditions: group without DEAB addition; BP 0, 25 and 50 µg/ml for 24 hours; Figure 8
# Method: ALDH protein is also an important stemness-maintenance marker of cancer stem cells and participates in the regulation of the self-renewal and differentiation of cancer stem cells. HNC-TIC-like oral stem cells (i.e., ALDH1^+CD44^+-1 cell line or ALDH1^+CD44^+-2 cell line) were treated with different concentrations (0, 25 and 50 µg/ml) of BP for 24 hours, and then, 1 ×10^5 cells obtained from each group were separately suspended in 50 µl of a stem cell detection kit (i.e., ALDEFLUOR array kit, purchased from […] Technologies Inc., Vancouver, Canada) buffer and the cell suspension of each group was separately added with ALDEFLUOR to a final concentration of 1 µM. Thereafter, a sample of each group was stained by […] and then analyzed by flow cytometry analysis to determine the ALDH activity of HNC-TIC-like oral stem cells (i.e., ALDH1^+CD44^+-1 cell line and ALDH1^+CD44^+-2 cell line).
# The above experimental procedure was repeated, but the cell suspension of each group was further added with N,N-diethylaminobenzaldehyde (DEAB, i.e., an inhibitor of ALDH) to a final concentration of 150 µM of DEAB separately.
compound,measurement,setting,value
"CCCC=C1OC(=O)c2ccccc21 [BP, butylidenephthalide]",number of brain CSCs ^CD133+ migrated to the wound,brain CSCs ^CD133+,significantly decreased
same,number of colonies in the bottom agar,"[1]; 4 weeks culture, Figure 15A",significantly decreased
same,relative colony-forming ability of cancer stem cells,"[1]; relative to 0 µg/ml group, Figure 15B",decreased along with the increment in the concentration of BP
same,expression of E-cadherin protein,[2],significantly increased
same,expressions of TGFβ-1 and Slug proteins,[2],significantly decreased
same,IC50,[3],400 µM and 75.3 µg/mL
same,number of pcDNA3.0-neo brain CSCs ^CD133+ migrated to the wound,[4],significantly decreased
same,suppression of the number of pcDNA 3.0-Axl brain CSCs ^CD133+ migrated to the wound,[5],not quite significant
same,number of live cells with ALDH activity,ALDH,increased along with the increment in the concentration of BP
